According to US6069177A, “3-Hydroxy-propanamine derived neuronal reuptake inhibitors” (priority 1997, dated 2000):
“Also recorded” adds a separate entry of the source. Where two headings read alike, the source gives them in different places.

Assays:
[1] = target: T1, human serotonin transporter (hSERT) (Homo sapiens, UniProt P31645); assay type: binding
T1 construct: expressed in transfected cells; membranes of cells expressing the cloned hSERT
Procedure: (§1) These transporters are responsible for neuronal reuptake of the neurotransmitters.
(§2) Cells were incubated in 10% CO2, 90% air at 37° C. and 100% humidity. The selecting antibiotic geneticin sulfate (250 μg/ml) was used during the cell culture for the hNET only.
(§3) For the preparation of homogenates, medium was removed by aspiration. […] Cells were then scraped from the surface with a rubber spatula into a centrifuge tube and collected by centrifugation at 1000×g for 5 min at 4° C. Supernatants were decanted and the pellet was resuspended in the appropriate binding buffer and homogenized with the use of a Polytron for 10 sec at setting 6. This solution was centrifuged at about 36,000×g for 10 minutes (4° C.). The pellet was suspended in the same volume of buffer and the centrifugation was repeated. The supernatants were decanted and the final pellet was suspended in the appropriate buffer and stored at -80° C. until use.
(§4) For the membranal preparation, cells were homogenized in 50 mM Tris-HCl with 120 mM NaCl and 5 mM KC1 (pH 7.4). […] The reaction mixture was incubated at 22° C. for 30 min. The assay was terminated by rapid filtration of the contents of each tube through a GF/B filter strip, which had been pretreated with 0.2% polyethylenimine, with the use of a 48-well Brandel cell harvester. The filter strips were then rinsed five times with ice-cold 0.9% NaCl. Next, individual filters were cut from the strip and placed in a scintillation vial containing 6.5 mL of Redi-Safe (Beckman Instruments, Fullerton, Calif.). Radioactivity was measured with a Beckman liquid scintillation counter (LS 5000TD).
(§5) The program was modified by the inventors to calculate the Hill Coefficient (nH). […] One-component models and two-component models were compared using the root mean square error of each fit and the F test.

[2] = target: T2, human dopamine transporter (hDAT) (Homo sapiens, UniProt Q01959); assay: [3H]WIN35428 binding to cloned human DAT; conditions: Kd (DA)/Kd (compound or drug) in the hDAT binding assay
T2 construct: expressed in transfected cells; membranes of cells expressing the cloned hDAT
T2 sequence (Q01959 whole entry): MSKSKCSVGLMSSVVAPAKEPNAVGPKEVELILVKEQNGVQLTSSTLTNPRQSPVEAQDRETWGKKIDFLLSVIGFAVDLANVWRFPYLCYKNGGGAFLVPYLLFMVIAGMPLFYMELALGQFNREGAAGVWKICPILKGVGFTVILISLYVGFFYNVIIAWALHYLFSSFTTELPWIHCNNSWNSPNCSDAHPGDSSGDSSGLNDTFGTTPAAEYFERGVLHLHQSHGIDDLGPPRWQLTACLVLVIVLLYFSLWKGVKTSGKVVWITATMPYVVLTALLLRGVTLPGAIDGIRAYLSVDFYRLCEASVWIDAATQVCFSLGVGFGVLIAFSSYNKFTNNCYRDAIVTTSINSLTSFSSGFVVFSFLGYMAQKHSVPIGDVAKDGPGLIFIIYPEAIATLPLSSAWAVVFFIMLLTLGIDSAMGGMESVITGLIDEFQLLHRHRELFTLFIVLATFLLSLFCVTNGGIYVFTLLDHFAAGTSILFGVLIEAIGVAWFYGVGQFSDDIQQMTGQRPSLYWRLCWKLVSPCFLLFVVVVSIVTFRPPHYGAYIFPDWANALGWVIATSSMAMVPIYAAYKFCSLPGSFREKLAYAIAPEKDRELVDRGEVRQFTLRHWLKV
Procedure: as §1, §2, §3
(§6) For the membranal preparation, cells were homogenized in the 50 mM Tris-HCl with 120 mM NaCl (pH 7.4). […] The reaction mixture was incubated at 4° C. for 2 hr. The remaining methods were exactly as described for hSERT above.
as §5

[3] = test system: 5-HT, NE and DA reuptake into rat brain synaptosomes; assay type: biochemical, rat (male Sprague-Dawley); conditions: for block uptake of all three neurotransmitters (5-HT, NE, and DA), Ki in words: rat brain synaptosomes
Procedure: (§7) Briefly, the tissue was homogenized in 20 volumes of ice-cold 0.32 M sucrose containing 11 mM glucose, pH 7.4 in a glass Potter-Elvehjemhomogenizer with teflon pestle (8 strokes, 900 rpm). The homogenate was centrifuged at 1,000 g for 10 minutes. The resulting supernatant was then centrifuged at 20,000 g for 20 minutes and the supernatent was discarded.
(§8) Briefly, synaptosomal protein (1.0-2.5 mg) was suspended in a total volume of 1 mL containing oxygenated incubation buffer, 10 μM pargyline to inhibit monoamine oxidase activity, 0.2 mg/mL sodium ascorbate and varying concentrations of other compounds or drugs as indicated in the text. […] After a 5 minute preincubation at 37° C. in a shaking water bath (80 oscillations/minute), the uptake was initiated by the addition of […]. The reaction was stopped after 5 minute by adding 4 mL ice-cold 0.9% (w/v) sodium chloride and rapidly filtered through a Whatman GF/B glass fiber filter in a 48-place Brandel cell harvester. The filter was then washed with an additional 8 mL of wash buffer, placed in a scintillation vial containing 5 mL of Redi-Safe (Beckman Instruments, Fullerton, Calif.) and counted. Specific uptake was calculated as the difference between the total uptake (zero unlabelled ligand) and nonspecific uptake (excess unlabelled ligand).

hSERT, hNET, and hDAT = assay: Simultaneous binding to cloned human transporters hSERT, hNET and hDAT; conditions: for Simultaneous Transporter Binding Potency: Table 4, each of the potency values greater than 7.0; for Simultaneous Transporter Binding Potency (Human): Table 5, comparison of rat and human data; for simultaneous transporter binding potency, in words: human, each value ≥7.0
Procedure: as §1, §2, §3, §4
For the membranal preparation, cells were homogenized in 50 mM Tris-HCl with 300 mM NaCl and 5 mM KCl (pH 7.4). […] The reaction mixture was incubated at 22° C. for 60 min. The remaining methods were exactly as described for hSERT above.
as §6, §5

[4] = target: human norepinephrine transporter (hNET) (Homo sapiens, UniProt P23975); assay type: binding
Sequence of human norepinephrine transporter (hNET) (P23975 whole entry): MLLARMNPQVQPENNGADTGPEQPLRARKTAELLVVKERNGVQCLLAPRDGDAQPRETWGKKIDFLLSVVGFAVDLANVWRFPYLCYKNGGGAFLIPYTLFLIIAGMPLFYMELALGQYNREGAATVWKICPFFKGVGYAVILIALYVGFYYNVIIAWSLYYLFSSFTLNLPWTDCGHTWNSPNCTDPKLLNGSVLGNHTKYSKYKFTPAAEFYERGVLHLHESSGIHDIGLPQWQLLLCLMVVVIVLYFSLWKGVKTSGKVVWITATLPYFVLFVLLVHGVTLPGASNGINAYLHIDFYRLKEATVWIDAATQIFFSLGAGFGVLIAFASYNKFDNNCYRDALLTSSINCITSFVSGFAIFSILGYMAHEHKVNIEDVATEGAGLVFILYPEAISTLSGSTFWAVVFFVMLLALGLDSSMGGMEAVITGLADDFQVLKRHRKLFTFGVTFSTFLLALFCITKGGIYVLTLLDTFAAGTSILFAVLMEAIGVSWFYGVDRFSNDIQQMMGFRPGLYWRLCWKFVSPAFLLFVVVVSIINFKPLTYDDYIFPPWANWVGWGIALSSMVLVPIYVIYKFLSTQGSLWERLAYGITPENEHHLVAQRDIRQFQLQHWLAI

[5] = target: T3, NE reuptake into rat brain synaptosomes (Rattus norvegicus, UniProt Q63380); assay: biochemical; set-up: species or system rat (male Sprague-Dawley), hippocampal tissue
T3 construct: A crude synaptosomal (P2) fraction was prepared; tissue Harlan Sprague-Dawley (animals); host or cells: rat hippocampus, crude synaptosomal (P2) fraction
T3 sequence (Q63380 1-617): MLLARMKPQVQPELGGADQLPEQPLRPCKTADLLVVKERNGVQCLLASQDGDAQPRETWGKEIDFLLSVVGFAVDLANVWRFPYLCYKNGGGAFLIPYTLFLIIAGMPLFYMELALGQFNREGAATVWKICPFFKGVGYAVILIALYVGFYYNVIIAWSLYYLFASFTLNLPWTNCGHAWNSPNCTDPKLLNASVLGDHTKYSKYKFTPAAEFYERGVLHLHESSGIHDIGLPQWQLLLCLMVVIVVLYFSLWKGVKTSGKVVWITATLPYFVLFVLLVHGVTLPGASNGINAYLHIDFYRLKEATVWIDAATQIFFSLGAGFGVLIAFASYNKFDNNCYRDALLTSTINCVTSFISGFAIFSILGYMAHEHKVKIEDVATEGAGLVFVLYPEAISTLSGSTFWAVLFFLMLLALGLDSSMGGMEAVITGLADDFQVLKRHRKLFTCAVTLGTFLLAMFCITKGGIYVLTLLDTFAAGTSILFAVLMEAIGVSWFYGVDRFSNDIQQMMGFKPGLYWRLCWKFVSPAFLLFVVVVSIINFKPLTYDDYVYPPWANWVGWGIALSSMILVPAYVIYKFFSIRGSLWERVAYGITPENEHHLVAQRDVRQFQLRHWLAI

[6] = target: T4, 5-HT reuptake into rat brain synaptosomes (Rattus norvegicus, UniProt P31652); assay: 5-HT reuptake inhibition in rat brain synaptosomes; assay type: biochemical, rat (male Sprague-Dawley), cortical tissue; conditions: Ki (5-HT)/Ki (compound or drug); Prozac to Serzone derived from literature Ki
T4 construct: A crude synaptosomal (P2) fraction was prepared; tissue Harlan Sprague-Dawley (animals); host or cells: rat cerebral cortex, crude synaptosomal (P2) fraction
T4 sequence (P31652 whole entry): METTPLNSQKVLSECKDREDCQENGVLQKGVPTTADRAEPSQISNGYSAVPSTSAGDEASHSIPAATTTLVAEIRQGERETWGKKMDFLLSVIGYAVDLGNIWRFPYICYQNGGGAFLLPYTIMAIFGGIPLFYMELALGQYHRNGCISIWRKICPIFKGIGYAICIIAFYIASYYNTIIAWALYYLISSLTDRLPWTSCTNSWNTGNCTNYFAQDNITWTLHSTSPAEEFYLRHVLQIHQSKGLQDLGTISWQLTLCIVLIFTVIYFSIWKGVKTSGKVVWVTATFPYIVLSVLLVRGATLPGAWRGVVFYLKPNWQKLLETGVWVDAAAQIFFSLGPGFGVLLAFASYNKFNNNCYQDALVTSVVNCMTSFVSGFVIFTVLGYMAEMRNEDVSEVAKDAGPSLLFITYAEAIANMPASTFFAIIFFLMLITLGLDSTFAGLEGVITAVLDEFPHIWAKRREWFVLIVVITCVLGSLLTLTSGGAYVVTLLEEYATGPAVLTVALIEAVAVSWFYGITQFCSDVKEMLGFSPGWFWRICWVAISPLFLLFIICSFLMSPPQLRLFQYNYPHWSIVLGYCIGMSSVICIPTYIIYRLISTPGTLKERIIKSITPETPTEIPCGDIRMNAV
Procedure: as §7, §8

[7] = target: T5, DA reuptake into rat brain synaptosomes (Rattus norvegicus, UniProt P23977); assay: DA reuptake inhibition in rat brain synaptosomes; assay type: biochemical, rat (male Sprague-Dawley), striatal tissue; conditions: for DA (Rat) Reuptake Inhibition Potency: Ki (DA)/Ki (compound or drug), Prozac to Serzone derived from literature Ki
T5 construct: A crude synaptosomal (P2) fraction was prepared; tissue Harlan Sprague-Dawley (animals); host or cells: rat striatum, crude synaptosomal (P2) fraction
T5 sequence (P23977 whole entry): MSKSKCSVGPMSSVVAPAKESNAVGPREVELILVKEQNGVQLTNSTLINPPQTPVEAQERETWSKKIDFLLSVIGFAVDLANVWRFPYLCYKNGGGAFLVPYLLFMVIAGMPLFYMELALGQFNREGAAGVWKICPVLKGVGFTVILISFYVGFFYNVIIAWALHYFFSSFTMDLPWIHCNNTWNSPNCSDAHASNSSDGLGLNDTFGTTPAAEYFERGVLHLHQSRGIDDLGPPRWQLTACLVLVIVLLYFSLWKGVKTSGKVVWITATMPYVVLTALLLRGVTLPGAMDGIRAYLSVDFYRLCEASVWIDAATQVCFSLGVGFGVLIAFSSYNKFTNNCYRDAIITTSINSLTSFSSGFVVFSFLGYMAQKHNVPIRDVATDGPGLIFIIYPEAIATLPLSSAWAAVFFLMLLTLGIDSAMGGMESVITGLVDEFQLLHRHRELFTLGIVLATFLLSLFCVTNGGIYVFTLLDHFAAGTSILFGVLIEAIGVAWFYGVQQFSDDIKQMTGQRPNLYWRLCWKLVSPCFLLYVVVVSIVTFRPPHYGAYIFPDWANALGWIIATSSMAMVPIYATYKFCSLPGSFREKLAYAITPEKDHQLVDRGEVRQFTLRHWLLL

[8] = target: T3, NE reuptake into rat brain synaptosomes; conditions: cited from earlier work
[9] = Table 5, comparison of rat and human data
[10] = Kd (NE)/Kd (compound or drug) in the hNET binding assay
[11] = Ki (NE)/Ki (compound or drug), Prozac to Serzone derived from literature Ki
[12] = Kd (5-HT)/Kd (compound or drug) in the hSERT binding assay

T1 sequence (P31645 whole entry): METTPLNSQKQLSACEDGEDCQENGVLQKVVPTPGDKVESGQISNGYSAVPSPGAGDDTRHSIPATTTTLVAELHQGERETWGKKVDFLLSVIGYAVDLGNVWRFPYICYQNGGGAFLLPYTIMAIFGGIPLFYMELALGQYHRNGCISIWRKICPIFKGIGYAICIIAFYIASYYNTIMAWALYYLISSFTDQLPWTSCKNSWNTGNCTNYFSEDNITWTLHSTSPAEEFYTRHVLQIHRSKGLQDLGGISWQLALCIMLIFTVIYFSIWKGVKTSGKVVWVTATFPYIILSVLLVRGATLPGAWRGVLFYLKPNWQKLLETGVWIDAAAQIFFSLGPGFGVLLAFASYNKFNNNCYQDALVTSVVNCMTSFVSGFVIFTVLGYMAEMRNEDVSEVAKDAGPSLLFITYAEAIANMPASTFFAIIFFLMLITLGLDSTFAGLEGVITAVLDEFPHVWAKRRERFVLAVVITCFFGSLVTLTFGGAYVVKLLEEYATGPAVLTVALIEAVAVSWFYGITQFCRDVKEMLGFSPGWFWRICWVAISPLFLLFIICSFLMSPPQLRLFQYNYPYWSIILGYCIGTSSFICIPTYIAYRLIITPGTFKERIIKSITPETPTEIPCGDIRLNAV

COc1ccc([C@H](CN(C)C)[C@@H](O)C2CCCCC2)cc1.Cl (racemic) [Compound E, (2RS,3SR)-3-Cyclohexyl-3-hydroxy-2-(4'-methoxyphenyl)-propyl-N,N-dimethylammonium chloride]
hSert Binding Potency [1]: 70 | hDAT Binding Potency [2]: 0.69 | Simultaneous Reuptake Inhibition Potency [3]: no | Simultaneous Reuptake Inhibition Potency (Rat) [3, 9]: no | Simultaneous Transporter Binding Potency (hSERT, hNET, and hDAT): no | Simultaneous Transporter Binding Potency (Human) (hSERT, hNET, and hDAT): no | hNet Binding Potency [4, 10]: 1.24 | NE (Rat) Reuptake Inhibition Potency [5, 11]: 0.54 | 5-HT (Rat) Reuptake Inhibition Potency [6]: 0.62 | DA (Rat) Reuptake Inhibition Potency [7]: 0.10

CN(C)C[C@H](c1ccc2ccccc2c1)[C@H](O)C(C)(C)C (relative stereo) [Compound A, (2RS,3RS)-3-Hydroxy-4,4-dimethyl-2-(2'-naphthyl)pentyl-N, N-dimethyl-ammonium chloride]
hSert Binding Potency [1, 12]: 1,750 | hDAT Binding Potency [2]: 7.16 | Simultaneous Reuptake Inhibition Potency [3]: yes (A compound or drug is considered to possess simultaneous reuptake inhibition potency if each of the potency values is greater than 1.0.) | simultaneous reuptake inhibition potency, in words [3]: possess the quality of "simultaneous reuptake inhibition potency" | Simultaneous Reuptake Inhibition Potency (Rat) [3, 9]: yes (A compound or drug is considered to possess simultaneous reuptake inhibition potency if each of the potency values is greater than 1.0.) | reuptake inhibition of all three neurotransmitters in both the rat and human models, in words [3]: potently inhibit reuptake of all three neurotransmitters in both the rat and human models | block uptake of all three neurotransmitters (5-HT, NE, and DA), Ki in words [3]: nanomolar to 10 nanomolar range | Simultaneous Transporter Binding Potency (hSERT, hNET, and hDAT): yes (A compound or drug is considered to possess "simultaneous transporter binding potency" if each of the potency values is greater than 7.0.) | Simultaneous Transporter Binding Potency (Human) (hSERT, hNET, and hDAT): yes (A compound or drug is considered to possess "simultaneous transporter binding potency" if each of the potency values is greater than 7.0.) | simultaneous transporter binding potency, in words (hSERT, hNET, and hDAT): qualify for simultaneous transporter binding potency | hNet Binding Potency [4, 10]: 73.6 | NE (Rat) Reuptake Inhibition Potency [5, 11]: 12.0 | Ki ([5]; rat brain synaptosomes): 10 ± 1 nM | DA (Rat) Reuptake Inhibition Potency [7]: 1.11 | Ki ([7]; rat brain synaptosomes): 60 ± 10 nM

CN(C)C[C@H](c1ccc2ccccc2c1)[C@H](O)c1ccccc1 (relative stereo) [Compound B, (2RS,3RS)-3-Hydroxy-2-(2'-naphthyl)-3-phenylpropyl-N, N-dimethylammonium chloride]
hSert Binding Potency [1]: 376 | hDAT Binding Potency [2]: 34.3 | Simultaneous Reuptake Inhibition Potency [3]: yes (A compound or drug is considered to possess simultaneous reuptake inhibition potency if each of the potency values is greater than 1.0.) | simultaneous reuptake inhibition potency, in words [3]: possess the quality of "simultaneous reuptake inhibition potency" | Simultaneous Reuptake Inhibition Potency (Rat) [3, 9]: yes (A compound or drug is considered to possess simultaneous reuptake inhibition potency if each of the potency values is greater than 1.0.) | reuptake inhibition of all three neurotransmitters in both the rat and human models, in words [3]: potently inhibit reuptake of all three neurotransmitters in both the rat and human models | block uptake of all three neurotransmitters (5-HT, NE, and DA), Ki in words [3]: nanomolar to 10 nanomolar range | Simultaneous Transporter Binding Potency (hSERT, hNET, and hDAT): yes (A compound or drug is considered to possess "simultaneous transporter binding potency" if each of the potency values is greater than 7.0.) | Simultaneous Transporter Binding Potency (Human) (hSERT, hNET, and hDAT): yes (A compound or drug is considered to possess "simultaneous transporter binding potency" if each of the potency values is greater than 7.0.) | simultaneous transporter binding potency, tightened criterion (hSERT, hNET, and hDAT; all potency values must be greater than 30): still qualifies | simultaneous transporter binding potency, in words (hSERT, hNET, and hDAT): qualify for simultaneous transporter binding potency

CC(C)(C)[C@@H](O)[C@H](CN)c1ccc2ccccc2c1 (relative stereo) [Compound C, (2RS,3RS)-3-hydroxy-4,4-dimethyl-2-(2'-naphthyl)pentyl-ammonium chloride]
hSert Binding Potency [1, 12]: 347 | hDAT Binding Potency [2]: 0.09 | Simultaneous Reuptake Inhibition Potency [3]: no | Simultaneous Reuptake Inhibition Potency (Rat) [3, 9]: no | Simultaneous Transporter Binding Potency (hSERT, hNET, and hDAT): no | Simultaneous Transporter Binding Potency (Human) (hSERT, hNET, and hDAT): no | hNet Binding Potency [4, 10]: 39.9 | DA (Rat) Reuptake Inhibition Potency [7]: 0.57

NC[C@H](c1ccc2ccccc2c1)[C@H](O)c1ccccc1 (relative stereo) [Compound D, (2RS,3RS)-3-Hydroxy-2-(2'-naphthyl)-3-phenyl-propylammoni um chloride]
hSert Binding Potency [1, 12]: 340 | hDAT Binding Potency [2]: 16.8 | Simultaneous Reuptake Inhibition Potency [3]: no | simultaneous reuptake inhibition potency, in words [3]: narrowly misses the criterion for simultaneous reuptake inhibition potency | Simultaneous Reuptake Inhibition Potency (Rat) [3, 9]: no | block uptake of all three neurotransmitters (5-HT, NE, and DA), Ki in words [3]: nanomolar to 10 nanomolar range | Simultaneous Transporter Binding Potency (hSERT, hNET, and hDAT): yes (A compound or drug is considered to possess "simultaneous transporter binding potency" if each of the potency values is greater than 7.0.) | Simultaneous Transporter Binding Potency (Human) (hSERT, hNET, and hDAT): yes (A compound or drug is considered to possess "simultaneous transporter binding potency" if each of the potency values is greater than 7.0.) | simultaneous transporter binding potency, in words (hSERT, hNET, and hDAT): qualify for simultaneous transporter binding potency; also recorded: meets the criterion for simultaneous transporter binding potency | 5-HT (Rat) Reuptake Inhibition Potency [6]: 0.68

COc1ccc(C(CN(C)C)C2(O)CCCCC2)cc1 (centres unmarked) [Effexor ®, reference compound]
Simultaneous Reuptake Inhibition Potency [3]: no | Simultaneous Reuptake Inhibition Potency (Rat) [3]: no | DA (Rat) Reuptake Inhibition Potency [7]: 0.18

Fc1ccc([C@@H]2CCNC[C@H]2COc2ccc3c(c2)OCO3)cc1 [Paxil ®, reference compound]
Ki [8]: 33 ± 2 nM | Simultaneous Reuptake Inhibition Potency [3]: no | Simultaneous Reuptake Inhibition Potency (Rat) [3]: no | hNet Binding Potency [4]: 55 | NE (Rat) Reuptake Inhibition Potency [5]: 3.61

CNCCC(Oc1ccc(C(F)(F)F)cc1)c1ccccc1 (centres unmarked) [Prozac ®, reference compound]
Simultaneous Reuptake Inhibition Potency [3]: no | Simultaneous Reuptake Inhibition Potency (Rat) [3]: no | DA (Rat) Reuptake Inhibition Potency [7]: 0.02

CCc1nn(CCCN2CCN(c3cccc(Cl)c3)CC2)c(=O)n1CCOc1ccccc1 [Serzone ®, reference compound]
Simultaneous Reuptake Inhibition Potency ([3]; Table 2, each of the potency values greater than 1.0): no | DA (Rat) Reuptake Inhibition Potency [7]: 0.03

CNCC[C@@H](Oc1ccccc1C)c1ccccc1 [Tomoxetine, reference compound]
Simultaneous Reuptake Inhibition Potency [3]: no
